Assay results taken from PMC12569736 (Journal of Cosmetic Dermatology, 2025).

Biological target: T1, human tyrosinase (hTYR) (Homo sapiens, UniProt P14679)
T1 construct: tyrosinase enzyme solution derived from MNT‐1 cells; endogenous in cells; host or cells: MNT-1 human melanoma cell line (crude lysate supernatant)
T1 sequence (P14679 19-529): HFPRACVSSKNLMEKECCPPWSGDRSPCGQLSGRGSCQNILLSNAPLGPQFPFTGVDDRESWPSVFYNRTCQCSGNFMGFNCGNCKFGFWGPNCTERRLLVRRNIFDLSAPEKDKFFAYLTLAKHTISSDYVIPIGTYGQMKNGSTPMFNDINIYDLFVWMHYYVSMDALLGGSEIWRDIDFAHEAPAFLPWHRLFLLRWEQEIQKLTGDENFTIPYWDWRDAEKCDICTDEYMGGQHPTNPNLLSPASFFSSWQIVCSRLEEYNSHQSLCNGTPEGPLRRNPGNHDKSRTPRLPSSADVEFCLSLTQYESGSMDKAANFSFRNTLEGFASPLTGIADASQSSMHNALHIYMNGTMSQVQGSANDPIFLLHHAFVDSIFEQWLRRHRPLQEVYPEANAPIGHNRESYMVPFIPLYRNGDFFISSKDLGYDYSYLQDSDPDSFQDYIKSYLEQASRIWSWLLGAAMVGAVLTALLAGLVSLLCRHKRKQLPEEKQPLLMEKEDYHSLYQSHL
Assay: L‐DOPA oxidation assay for tyrosinase activity (MNT‐1 cell lysate)
Assay type: biochemical
Experimental: The hTYR‐mediated L‐DOPA oxidation assay was performed according to Winder and Harris. MNT‐1 cells were resuspended in 0.05 M sodium phosphate buffer (pH 6.9) and sonicated for 1 min. After incubation on ice for 3–5 min, the mixture underwent a second sonication. The lysate was centrifuged at 13 000 rpm for 15 min at 4°C, and the supernatant was collected and kept on ice.
For the assay, 20 μL of crude enzyme solution and 80 μL sodium phosphate buffer were added to a 96‐well plate and centrifuged at 1000 rpm for 30 s. Subsequently, 2 μL of different concentrations of test compounds were added to each well, followed by centrifugation at 1000 rpm for 30 s. Finally, 100 μL L‐DOPA (final concentration 4 mM) was added to initiate the reaction. The microplate reader (Synergy H1 Hybrid Reader, BioTek) was used to monitor the reaction at 26°C, measuring absorbance at 475 nm every minute for 60 min. IC50 values were calculated using GraphPad software based on Vmax values from the kinetic curves.
The L‐DOPA tyrosinase assay was performed using a tyrosinase enzyme solution derived from MNT‐1 cells in 50 mM sodium phosphate buffer (pH 6.9), with a substrate (L‐DOPA) concentration of 4 mM and various concentrations of inhibitors as indicated. Data represent mean ± standard deviation of three independent experiments.

- IC50 (MNT‐1 lysate, L‐DOPA 4 mM, pH 6.9, read-out: IC50 against hTYR): 70 nM
- inhibition of hTYR (at concentrations ≥ 0.4 μM): nearly complete inhibition
- fold greater hTYR potency than 4‐butylresorcinol (ratio of IC50, vs 4‐butylresorcinol): ~100 fold
- fold greater hTYR potency than 377 (ratio of IC50, vs 377): over 300 fold
- fold greater hTYR potency than Thiamidol (ratio of IC50, vs Thiamidol): ~ 4 fold
- fold greater hTYR potency than resveratrol (ratio of IC50, vs resveratrol): ~86 fold
SMILES: CC1(C(=O)Nc2nc(-c3ccc(O)cc3O)cs2)COC1 [KT‐939, N‐(4‐(2,4‐Dihydroxyphenyl) Thiazol‐2‐yl)‐3‐Methyloxetane‐3‐Carboxamide]
